Results reported in patent US20240374631A1, “A COMPOSITION FOR IMPROVING GUT MICROBIOTA, BEHAVIOURAL PATTERN, ALPHA-SYNUCLEIN LEVELS, SLEEP PATTERN AND/OR SERUM MELATONIN” (GN Corporation Co Ltd, priority 2021, published 2024).

System: α-synuclein on the neuroblastoma cell line (SHSY-5Y Tet-On: SCC291)
Test: Expression of α-synuclein on neuroblastoma cell line stimulated with beta-glucan or PMA (glutaraldehyde-fixed cellular ELISA, 3 days)
Type: cell-based
Details: BG-AF202 50 μg/mL, PMA 500 ng/mL
Description: Neuroblastoma cell line (SHSY-5Y Tet-On: SCC291) (MERCK) was suspended in 10% FCS-DMEM/F12 medium and seeded into 96-well microplates to achieve a cell count of 5×10^4 cells/well. After 24 hours of incubation, the cells were washed with 10% FCS-DMEM/F12 medium and new 10% FCS-DMEM/F12 medium was added.
Then, β-glucan AFO-202 (50 μg/mL) and PMA (500 ng/mL) (Sigma) were added to the medium, and the cells were cultured for 1 to 3 days. After incubation, the wells were washed three times with PBS and fixed in 0.25% glutaraldehyde-PBS for 1 hour at room temperature. After fixation, the wells were washed three times with PBS-0.05% Tween (PBS-T). After washing the wells with PBS-T, 50 μL of 500-fold diluted α-synuclein polyclonal rabbit antibody (proteintech Co. 10842-1-AP) was added to the wells and incubated at room temperature for 1 h. Then, 2% BSA-PBS-T was added and left for 1 h (to block non-specific reactions).
After 1 hour, the wells were washed with PBS-T and 50 μL of biotin-labeled anti-rabbit IgG antibody (Cosmo Bio) diluted 5,000-fold was added to the wells and the reaction was carried out for 40 minutes at room temperature. […]
After that, the absorbance (OD value) was measured with a microplate reader (450 nm) (Tosoh). Data were expressed as […] value (sample OD value−blank OD value). The expression rate was calculated based on the control (None). […]

In the case of CCCCCCCCCCCCCC(=O)O[C@@H]1[C@@H](C)[C@@]2(O)[C@@H](C=C(CO)C[C@]3(O)C(=O)C(C)=C[C@@H]23)[C@@H]2C(C)(C)[C@]12OC(C)=O [PMA], the “α-synuclein expression (%) vs. None” value is reported as 50.1% and the δOD value (None 0.281) is reported as 0.166.
